What follows are compounds tested against T1, chicken gizzard smooth muscle myosin subfragment-1 chemically crosslinked to cardiac or skeletal actin (Gallus gallus, UniProt P10587) (assay: Smooth muscle myosin ATPase dose response assay (pyruvate kinase/horseradish peroxidase/pyruvate oxidase-coupled, amplex red fluorescence)). Settings: read-out: IC50 Arithmetic Mean.
T1 construct: chicken gizzard smooth muscle myosin subfragment-1; from tissue; host or cells: chicken gizzard
Type: biochemical
Summary of the method: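 EDC/NHS-crosslinked S1–actin, amount set per prep by rate titration. Buffer: 12 mM K-PIPES pH 7.00 (22° C), 100 mM KCl, 2 mM MgCl2, 0.15 mM ATP, 0.1 mM PEP, 2 mM KPi, 0.1 mM amplex red. Read ex 480/em 615 nm; IC50 = midpoint, 4-param Hill fit.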

T1 sequence (P02607 2-151): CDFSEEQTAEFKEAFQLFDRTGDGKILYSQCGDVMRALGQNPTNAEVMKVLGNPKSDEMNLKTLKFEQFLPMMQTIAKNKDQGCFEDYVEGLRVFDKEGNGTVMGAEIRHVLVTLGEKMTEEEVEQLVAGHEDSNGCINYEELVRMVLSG
T1 sequence (P10587 84-789): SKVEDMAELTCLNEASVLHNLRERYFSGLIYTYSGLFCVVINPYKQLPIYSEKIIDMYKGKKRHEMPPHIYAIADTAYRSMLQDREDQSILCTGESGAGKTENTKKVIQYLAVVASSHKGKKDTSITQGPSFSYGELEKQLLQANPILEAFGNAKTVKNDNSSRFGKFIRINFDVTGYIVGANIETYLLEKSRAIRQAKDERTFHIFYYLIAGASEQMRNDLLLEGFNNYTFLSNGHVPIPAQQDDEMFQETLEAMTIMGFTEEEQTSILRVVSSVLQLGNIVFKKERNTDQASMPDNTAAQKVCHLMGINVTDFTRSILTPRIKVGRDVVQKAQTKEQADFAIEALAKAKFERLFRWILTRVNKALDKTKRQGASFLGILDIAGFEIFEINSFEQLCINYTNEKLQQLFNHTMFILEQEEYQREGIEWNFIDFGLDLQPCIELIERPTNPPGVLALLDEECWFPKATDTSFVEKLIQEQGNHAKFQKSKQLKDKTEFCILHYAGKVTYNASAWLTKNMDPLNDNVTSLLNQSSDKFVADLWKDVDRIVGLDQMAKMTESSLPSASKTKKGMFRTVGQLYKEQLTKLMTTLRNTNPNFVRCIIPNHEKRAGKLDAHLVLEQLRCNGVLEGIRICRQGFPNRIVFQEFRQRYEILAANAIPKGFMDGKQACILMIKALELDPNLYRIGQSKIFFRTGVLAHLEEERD

IC50 [µM]	SMILES
0.089	C[C@H](CNC(=O)c1cc(F)c(-c2cnn(C)c2)nc1NCCc1cccc(F)c1)C(N)=O [N-((2R)-2-carbamoylpropyl)(5-fluoro-2-{[2-(3-fluorophenyl)ethyl]amino}-6-(1-methylpyrazol-4-yl)(3-pyridyl))carboxamide]
0.151	CC(C)(CNC(=O)c1ccc(-c2ccccc2C#N)nc1NCCc1cccc(F)c1)NC=O [N-(2-carbonylamino-2-methylpropyl)(6-(2-cyanophenyl)-2-{[2-(3-fluorophenyl)ethyl]amino}(3-pyridyl))carboxamide]
0.029	N#Cc1ccccc1-c1ccc(C(=O)NCc2ccccn2)c(NCCc2cccc(F)c2)n1 [(6-(2-cyanophenyl)-2-{[2-(3-fluorophenyl)ethyl]amino}(3-pyridyl))-N-(2-pyridylmethyl)carboxamide]
5.25	O=C(NCCc1ccccn1)c1ccc(-c2ccccc2)nc1NCCc1ccccc1 [{6-phenyl-2-[(2-phenylethyl)amino](3-pyridyl)}-N-(2-(2-pyridyl)ethyl)carboxamide]
9.76	N#Cc1ccccc1-c1ccc(C(=O)NC[C@H](N)C(=O)O)c(NCCc2cccc(F)c2)n1 [(2S)-2-amino-3-[(6-(2-cyanophenyl)-2-{[2-(3-fluorophenyl)ethyl]amino}(3-pyridyl))carbonylamino]propanoic acid]
0.718	COC(=O)N1CCC[C@H](CNC(=O)c2ccc(-c3ccccc3C#N)nc2NCCc2cccc(F)c2)C1 [methyl (3R)-3-{[(6-(2-cyanophenyl)-2-{[2-(3-fluorophenyl)ethyl]amino}(3-pyridyl))carbonylamino]methyl}piperidinecarboxylate]
11.1	N#Cc1ccccc1-c1ccc(C(=O)N[C@@H](CN)C(=O)O)c(NCCc2cccc(F)c2)n1 [(2S)-3-amino-2-[(6-(2-cyanophenyl)-2-{[2-(3-fluorophenyl)ethyl]amino}(3-pyridyl))carbonylamino]propanoic acid]
58.8	N#Cc1ccccc1-c1ccc(C(=O)N[C@H](CCCCNC(=O)OCc2ccccc2)C(N)=O)c(NCCc2cccc(F)c2)n1 [N-{(1R)-1-carbamoyl-5-[(phenylmethoxy)carbonylamino]pentyl}(6-(2-cyanophenyl)-2-{[2-(3-fluorophenyl)ethyl]amino}(3-pyridyl))carboxamide]
1.8	C[C@@H](CNC(=O)c1cc(F)c(-c2cnn(C)c2)nc1NCCc1cccc(F)c1)NC(=O)CN
0.017	N#Cc1ccccc1-c1ccc(C(=O)NCc2cccnc2NCCCN)c(NCCc2cccc(F)c2)n1 [N-({2-[(3-aminopropyl)amino](3-pyridyl)}methyl)(6-(2-cyanophenyl)-2-{[2-(3-fluorophenyl)ethyl]amino}(3-pyridyl))carboxamide]
1.34	COC(=O)CNC(=O)c1ccc(-c2ccccc2)nc1NCCc1ccccc1 [methyl 2-({6-phenyl-2-[(2-phenylethyl)amino]-3-pyridyl}carbonylamino)acetate]
0.006	N#Cc1ccccc1-c1nc(NCCc2cccc(F)c2)c(C(=O)NCc2cccnc2CN)cc1F [N-{[2-(aminomethyl)(3-pyridyl)]methyl}(6-(2-cyanophenyl)-5-fluoro-2-{[2-(3-fluorophenyl)ethyl]amino}(3-pyridyl))carboxamide]
0.104	N#Cc1ccccc1-c1ccc(C(=O)NCC(N)=O)c(NCCc2cccc(F)c2)n1 [N-(carbamoylmethyl)(6-(2-cyanophenyl)-2-{[2-(3-fluorophenyl)ethyl]amino}(3-pyridyl))carboxamide]
9.31	CN(C)CCNC(=O)CNC(=O)c1ccc(-c2ccccc2C#N)nc1NCCc1cccc(F)c1 [N-[2-(dimethylamino)ethyl]-2-[(6-(2-cyanophenyl)-2-{[2-(3-fluorophenyl)ethyl]amino}(3-pyridyl))carbonylamino]acetamide]
2.79	CCc1ccc(-c2ccc(C(=O)NCc3cccnc3)c(NCCc3ccccn3)n2)cc1 [{6-(4-ethylphenyl)-2-[(2-(2-pyridyl)ethyl)amino](3-pyridyl)}-N-(3-pyridylmethyl)carboxamide]
0.047	Cn1cc(-c2nc(NCCc3cccc(F)c3)c(C(=O)NC[C@H]3CCN3C(=O)CO)cc2F)cn1 [N-{[(2R)-1-(2-hydroxyacetyl)azetidin-2-yl]methyl}(5-fluoro-2-{[2-(3-fluorophenyl)ethyl]amino}-6-(1-methylpyrazol-4-yl)(3-pyridyl))carboxamide]
6.83	C[C@@H](CNC(=O)c1ccc(-c2ccccc2C#N)nc1NCCc1cccc(F)c1)N(C)C(=O)CCCN
0.131	CC[C@H](CNC(=O)c1cc(F)c(-c2cnn(C)c2)nc1NCCc1cccc(F)c1)NC(=O)CN [N-((1R)-1-{[(5-fluoro-2-{[2-(3-fluorophenyl)ethyl]amino}-6-(1-methylpyrazol-4-yl)(3-pyridyl))carbonylamino]methyl}propyl)-2-aminoacetamide]
0.076	Cc1ccccc1CCNc1nc(-c2ccccc2C#N)ccc1C(=O)NCc1cccnc1 [(6-(2-cyanophenyl)-2-{[2-(2-methylphenyl)ethyl]amino}(3-pyridyl))-N-(3-pyridylmethyl)carboxamide]
10.1	Cc1cc(C)cc(-c2ccc(C(=O)NCc3cccnc3)c(NCCc3ccccn3)n2)c1 [{6-(3,5-dimethylphenyl)-2-[(2-(2-pyridyl)ethyl)amino](3-pyridyl)}-N-(3-pyridylmethyl)carboxamide]
0.251	CC(=O)N[C@H](C)CNC(=O)c1cc(F)c(-c2cnn(C)c2)nc1NCCc1cccc(F)c1
0.705	N#Cc1ccccc1-c1ccc(C(=O)NC[C@H]2CCCN2CCN)c(NCCc2cccc(F)c2)n1 [N-{[(2R)-1-(2-aminoethyl)pyrrolidin-2-yl]methyl}(6-(2-cyanophenyl)-2-{[2-(3-fluorophenyl)ethyl]amino}(3-pyridyl))carboxamide]
0.07	Cn1cc(-c2nc(NCCc3cccc(F)c3)c(C(=O)NC[C@H]3CCCN3C(=O)CCN)cc2F)cn1 [N-{[(2R)-1-(3-aminopropanoyl)pyrrolidin-2-yl]methyl}(5-fluoro-2-{[2-(3-fluorophenyl)ethyl]amino}-6-(1-methylpyrazol-4-yl)(3-pyridyl))carboxamide]
0.973	O=C1CNCC(CNC(=O)c2ccc(-c3cn[nH]c3)nc2NCCc2cccc(F)c2)N1 (stereo not drawn) [(2-{[2-(3-fluorophenyl)ethyl]amino}-6-pyrazol-4-yl(3-pyridyl))-N-[(6-oxopiperazin-2-yl)methyl]carboxamide]
0.587	Cn1cc(-c2ccc(C(=O)NC[C@H]3CCCN3C(=O)CCN)c(NCCc3cccc(F)c3)n2)cn1 [N-{[(2R)-1-(3-aminopropanoyl)pyrrolidin-2-yl]methyl}(2-{[2-(3-fluorophenyl)ethyl]amino}-6-(1-methylpyrazol-4-yl)(3-pyridyl))carboxamide]
0.046	O=C(NC[C@H]1CCN1C(=O)CO)c1cc(F)c(-c2cn[nH]c2)nc1NCCc1cccc(F)c1 [N-{[(2R)-1-(2-hydroxyacetyl)azetidin-2-yl]methyl}(5-fluoro-2-{[2-(3-fluorophenyl)ethyl]amino}-6-pyrazol-4-yl(3-pyridyl))carboxamide]

SMILES	IC50 [µM]
Cn1cc(-c2nc(NCCc3cccc(F)c3)c(C(=O)NC[C@H]3CCCN3C(=O)[C@H](CO)NC(=O)OC(C)(C)C)cc2F)cn1 [N-[2-((2R)-2-{[(5-fluoro-2-{[2-(3-fluorophenyl)ethyl]amino}-6-(1-methylpyrazol-4-yl)(3-pyridyl))carbonylamino]methyl}pyrrolidinyl)(1S)-1-(hydroxymethyl)-2-oxoethyl](tert-butoxy)carboxamide]	1.2
